The values below come from patent US8916565B2, “Pyrrolopyrazine-spirocyclic piperidine amides as modulators of ion channels” (priority 2011, dated 2014).

The test concerns the target human NaV subtype, like NaV 1.7 (Homo sapiens, UniProt Q15858). The test is described as follows: E-VIPR optical membrane potential assay with electrical stimulation. Type of test: cell-based. The note with it: active against one or more sodium channels; Table 3 does not name the assay or NaV subtype; read-out: Binned Activity Data (IC50).

In general, IC50 refers to the concentration that inhibits the measured activity by half.

human NaV subtype, like NaV 1.7, sequence (Q15858 whole entry): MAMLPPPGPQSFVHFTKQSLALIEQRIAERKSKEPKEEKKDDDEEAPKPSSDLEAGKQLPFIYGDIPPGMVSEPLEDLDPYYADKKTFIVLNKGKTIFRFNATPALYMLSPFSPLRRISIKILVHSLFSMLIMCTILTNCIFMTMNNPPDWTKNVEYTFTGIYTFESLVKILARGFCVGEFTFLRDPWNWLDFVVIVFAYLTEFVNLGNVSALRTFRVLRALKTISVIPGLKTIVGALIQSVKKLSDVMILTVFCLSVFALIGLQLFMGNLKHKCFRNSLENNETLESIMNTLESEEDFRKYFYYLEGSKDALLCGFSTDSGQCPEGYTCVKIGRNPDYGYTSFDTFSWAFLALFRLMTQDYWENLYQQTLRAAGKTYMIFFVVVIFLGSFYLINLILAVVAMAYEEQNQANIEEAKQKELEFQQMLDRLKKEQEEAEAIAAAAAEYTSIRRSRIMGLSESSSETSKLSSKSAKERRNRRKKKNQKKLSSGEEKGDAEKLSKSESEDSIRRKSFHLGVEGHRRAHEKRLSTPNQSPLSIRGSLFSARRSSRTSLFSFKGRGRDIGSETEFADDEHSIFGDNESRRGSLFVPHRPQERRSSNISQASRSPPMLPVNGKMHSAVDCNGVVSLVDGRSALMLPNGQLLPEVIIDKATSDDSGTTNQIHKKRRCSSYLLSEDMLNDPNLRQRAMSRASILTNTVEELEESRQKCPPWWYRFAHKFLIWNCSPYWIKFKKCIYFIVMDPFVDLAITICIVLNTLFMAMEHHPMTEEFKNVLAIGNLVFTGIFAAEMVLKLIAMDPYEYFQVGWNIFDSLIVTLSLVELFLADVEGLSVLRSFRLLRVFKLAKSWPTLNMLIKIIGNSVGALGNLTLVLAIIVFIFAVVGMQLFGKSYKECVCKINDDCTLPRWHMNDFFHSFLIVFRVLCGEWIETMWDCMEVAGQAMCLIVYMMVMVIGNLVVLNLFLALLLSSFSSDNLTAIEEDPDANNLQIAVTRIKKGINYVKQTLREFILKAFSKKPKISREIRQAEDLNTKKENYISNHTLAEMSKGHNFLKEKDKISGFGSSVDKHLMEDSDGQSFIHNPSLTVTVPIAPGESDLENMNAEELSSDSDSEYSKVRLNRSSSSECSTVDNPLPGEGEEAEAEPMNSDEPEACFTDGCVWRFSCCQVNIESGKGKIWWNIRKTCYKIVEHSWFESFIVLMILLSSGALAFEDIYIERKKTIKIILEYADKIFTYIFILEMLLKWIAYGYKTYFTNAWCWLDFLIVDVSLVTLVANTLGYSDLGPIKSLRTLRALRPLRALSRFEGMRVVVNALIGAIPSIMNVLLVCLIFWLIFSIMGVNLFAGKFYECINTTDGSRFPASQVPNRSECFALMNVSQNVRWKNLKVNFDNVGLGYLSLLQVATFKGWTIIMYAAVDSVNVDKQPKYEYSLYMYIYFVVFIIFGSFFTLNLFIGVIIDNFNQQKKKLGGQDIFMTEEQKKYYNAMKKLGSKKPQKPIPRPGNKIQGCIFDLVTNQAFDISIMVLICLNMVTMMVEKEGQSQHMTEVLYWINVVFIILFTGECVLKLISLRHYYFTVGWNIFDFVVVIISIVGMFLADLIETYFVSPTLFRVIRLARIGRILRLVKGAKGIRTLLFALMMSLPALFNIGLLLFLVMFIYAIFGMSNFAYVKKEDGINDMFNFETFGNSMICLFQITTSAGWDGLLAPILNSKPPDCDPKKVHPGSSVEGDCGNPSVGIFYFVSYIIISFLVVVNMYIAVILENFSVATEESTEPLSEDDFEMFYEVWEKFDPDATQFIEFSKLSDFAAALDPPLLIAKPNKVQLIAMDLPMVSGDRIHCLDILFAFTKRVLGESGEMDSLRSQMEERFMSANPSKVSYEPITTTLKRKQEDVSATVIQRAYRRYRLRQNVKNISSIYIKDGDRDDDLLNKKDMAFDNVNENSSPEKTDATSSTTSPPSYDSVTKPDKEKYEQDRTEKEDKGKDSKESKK

Turning to `Cc1cc(C(=O)N2CCC3(CC2)c2ccc(C(F)(F)F)n2CCN3CCO)ccc1OC(C)C` [Compound 156], the IC50 is at most 2000 nM. Next, `COc1cc(C(=O)N2CCC3(CC2)c2ccc(C(F)(F)F)n2CCN3C)ccc1OC(C)(C)C` [Compound 158]: at most 2000 nM. Turning to `Cc1cc(C(F)F)n2ncc(C(=O)N3CCC4(CC3)NCCn3c(C(F)(F)F)ccc34)c2n1` [Compound 159], the IC50 is 2000 to 5000 nM. To `CC(C)Oc1ccc(C(=O)N2CCC3(CC2)c2ccc(C(=O)C(F)(F)F)n2CCN3C)cc1CO` [Compound 160] belongs at most 2000 nM; to `Cc1cc(C(=O)N2CCC3(CC2)c2ccc(C(=O)C4(C)CC4)n2CCN3C)ccc1O` [Compound 161], at most 2000 nM.

For `CC(C)Nc1ccnc2c(C(=O)N3CCC4(CC3)c3ccc(C(F)(F)F)n3CCN4C)cnn12` [Compound 162], the IC50 is at most 2000 nM. With `CC(=O)c1ccc2n1CCN(C)C21CCN(C(=O)c2ccc(-c3ccccc3)cc2)CC1` [Compound 163], the IC50 was over 5000 nM.

Turning to `COc1ccc(C(=O)N2CCC3(CC2)c2ccc(C(=O)C(F)(F)F)n2C(C)CN3C)cc1C` (stereo not drawn) [Compound 164], the IC50 was at most 2000 nM.

Take `Cc1cc(C(=O)N2CCC3(CC2)c2ccc(C(F)(F)F)n2CCN3CC#N)ccc1OC(C)C` [Compound 165]: the IC50 is at most 2000 nM.

Regarding `CN1CCn2c(C(F)(F)F)ccc2C12CCN(C(=O)c1cccc(Cl)c1)CC2` [Compound 166], the IC50 is over 5000 nM. Next, `CCN1CCn2c(C(F)(F)F)ccc2C12CCN(C(=O)c1ccc(OC(C)C)c(OC)c1)CC2` [Compound 167]: at most 2000 nM; `COc1cc(C(=O)N2CCC3(CC2)c2ccc(C(F)(F)F)n2CCN3C)ccc1OCCOC(F)(F)F` [Compound 168]: at most 2000 nM.

As for `Cc1cc(-c2ccc(C(=O)N3CCC4(CC3)c3ccc(C(=O)C(F)(F)F)n3CCN4C)cc2C)ccn1` [Compound 169], the IC50 is at most 2000 nM. To `COc1cc(C(=O)N2CCC3(CC2)c2ccc(C(F)(F)F)n2CCN3C(C)=O)ccc1OC(C)C` [Compound 170] belongs over 5000 nM. To `COc1cc(C(=O)N2CCC3(CC2)NCC(C)n2c(C(=O)C(F)(F)F)ccc23)ccc1OCCOC(F)(F)F` (stereo not drawn) [Compound 171] belongs at most 2000 nM. To `CN1CCn2c(C(=O)C(F)(F)F)ccc2C12CCN(C(=O)c1ccc(-c3ccccc3)cc1)CC2` [Compound 172] belongs at most 2000 nM.

For the compound `COc1ccc(C(=O)N2CCC3(CC2)NCC(C)n2c(C(=O)C(F)(F)F)ccc23)cc1C(F)(F)F` (stereo not drawn) [Compound 173], the IC50 is at most 2000 nM. Next, `CC(=O)c1ccc2n1C(C)(C)CN(C)C21CCN(C(=O)c2ccc(OC(C)C)c(C)c2)CC1` [Compound 174]: at most 2000 nM; `CN1CCn2c(C(=O)C(F)(F)F)ccc2C12CCN(C(=O)c1ccc(OCC(F)(F)F)cc1)CC2` [Compound 175]: at most 2000 nM; `CC(C)S(=O)(=O)c1ccc(C(=O)N2CCC3(CC2)c2ccc(C(=O)C(C)(C)C)n2CCN3C)cc1` [Compound 176]: 2000 to 5000 nM. To `Cc1cc(C(=O)N2CCC3(CC2)c2ccc(C(F)(F)F)n2CCN3C)ccc1F` [Compound 177] belongs over 5000 nM; to `Cc1nc(C(=O)N2CCC3(CC2)c2cc(C(=O)C(F)(F)F)cn2C(C)(C)CN3C)ccc1OC(C)C` [Compound 178], over 5000 nM. Take `COc1cc(C(=O)N2CCC3(CC2)N[C@H](C)Cn2c(C(F)(F)F)ccc23)ccc1OC(C)C` [Compound 179]: the IC50 lay within 2000 to 5000 nM.

With `COc1ccc(C(=O)N2CCC3(CC2)c2ccc(C(=O)c4ccccc4)n2CCN3C)cc1C(F)(F)F` [Compound 180], the IC50 is at most 2000 nM.

In the case of `CCCCOc1ccc(C(=O)N2CCC3(CC2)NCCn2c(C(F)(F)F)ccc23)cc1OC` [Compound 181], the IC50 is at most 2000 nM. Next, `Cc1cc(C(=O)N2CCC3(CC2)c2ccc(C(=O)C(C)C)n2CCN3C)ccc1OC(C)C` [Compound 182]: at most 2000 nM; `CC(C)C(=O)c1ccc2n1CCN(C)C21CCN(C(=O)c2ccc(C(C)(C)O)c(F)c2)CC1` [Compound 183]: at most 2000 nM.
